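All cell lines were grown in 96-well plates and treated with compound for 48 hours. Here, GI50 denotes the concentration required for 50% inhibition of growth. Definition used: TGI = concentration required for complete inhibition of growth.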
What was measured:
Assay in all cases: NCI anticancer screen, dose series, 48 h; in the data active = GI50 below about 0.43 µM; inactive = the rest
[1] = system: DU-145 prostate
[2] = system: SF-268 CNS
[3] = system: A549 NSCLC
[4] = system: LOX IMVI melanoma
[5] = system: SK-MEL-5 melanoma
[6] = system: SR leukemia
[7] = system: NCI-H23 lung
[8] = system: A498 renal
[9] = system: OVCAR-3 ovarian
[10] = system: HT29 colon
[11] = system: HOP-62 NSCLC
[12] = system: NCI/ADR-RES ovarian
[13] = system: SN12C renal
[14] = system: 786-0 renal
[15] = system: PC-3 prostate
[16] = system: HCC-2998 colon
[17] = system: HS 578T breast
[18] = system: IGROV1 ovarian
[19] = system: RPMI-8226 leukemia
[20] = system: NCI-H460 lung
[21] = system: RXF 393 renal
[22] = system: UO-31 renal
[23] = system: T-47D breast
[24] = system: TK-10 renal
[25] = system: HCT-116 colon
[26] = system: OVCAR-8 ovarian
[27] = system: OVCAR-4 ovarian
[28] = system: SF-295 CNS
[29] = system: EKVX NSCLC
[30] = system: MDA-MB-231 breast
[31] = system: SK-OV-3 ovarian
[32] = system: OVCAR-5 ovarian
[33] = system: HL-60(TB) leukemia
[34] = system: SK-MEL-28 melanoma
[35] = system: SNB-75 CNS
[36] = system: SW-620 colon
[37] = system: NCI-H226 lung
[38] = system: HOP-92 NSCLC
[39] = system: SNB-19 CNS
[40] = system: MCF7 breast
[41] = system: UACC-257 melanoma
[42] = system: HCT-15 colon
[43] = system: NCI-H522 lung
[44] = system: MOLT-4 leukemia
[45] = system: U251 CNS
[46] = system: MALME-3M melanoma
[47] = system: ACHN renal
[48] = system: SK-MEL-2 melanoma
[49] = system: SF-539 CNS
[50] = system: MDA-MB-435
[51] = system: COLO 205 colon
[52] = system: K-562 leukemia
[53] = system: UACC-62 melanoma
[54] = system: CCRF-CEM leukemia
[55] = system: BT-549 breast
[56] = system: KM12 colon
[57] = system: CAKI-1 renal
[58] = system: M14 melanoma

CC(=O)OC[C@@]12Oc3c(cccc3-c3ccc(O)c4c3O[C@]3(COC(C)=O)C(=C4O)C(=O)C[C@H](C)[C@@H]3OC(C)=O)C(O)=C1C(=O)C[C@H](C)[C@@H]2OC(C)=O
38.5 µM: TGI [38]
16.9 µM: TGI [5]
48.4 µM: TGI [8]
80.8 µM: TGI [28]
48.9 µM: TGI [51]
31.4 µM: TGI [41]
42.8 µM: TGI [35]
63.9 µM: TGI [48]
12.9 µM: TGI [4]
56.6 µM: TGI [33]
46.4 µM: TGI [43]
56.5 µM: TGI [46]
50.5 µM: TGI [21]
inactive: GI50 [1] 10.8 µM | GI50 [2] 4.32 µM | GI50 [3] 4.06 µM | GI50 [4] 3.53 µM | GI50 [5] 4.76 µM | GI50 [6] 3.68 µM | GI50 [7] 10.6 µM | GI50 [8] 3.3 µM | GI50 [9] 13.9 µM | GI50 [10] 7.87 µM | GI50 [11] 4.19 µM | GI50 [12] 32.7 µM | GI50 [13] 6.98 µM | GI50 [14] 33.5 µM | GI50 [15] 15.3 µM | GI50 [16] 6.13 µM | GI50 [17] 3.77 µM | GI50 [18] 7.12 µM | GI50 [19] 6.08 µM | GI50 [20] 4.83 µM | GI50 [21] 9.39 µM | GI50 [22] 23.9 µM | GI50 [23] 18.5 µM | GI50 [24] 29.9 µM | GI50 [25] 28.3 µM | GI50 [26] 6.39 µM | GI50 [27] 29.4 µM | GI50 [28] 6.92 µM | GI50 [29] 24.3 µM | GI50 [30] 25.5 µM | GI50 [31] 25.5 µM | GI50 [32] 29.3 µM | GI50 [33] 17.7 µM | GI50 [34] 6.1 µM | GI50 [35] 2.53 µM | GI50 [36] 33.2 µM | GI50 [37] 20.2 µM | GI50 [38] 5 µM | GI50 [39] 15.7 µM | GI50 [40] 26.1 µM | GI50 [41] 3.4 µM | GI50 [42] 5.45 µM | GI50 [43] 7.97 µM | GI50 [44] 10.9 µM | GI50 [45] 4.08 µM | GI50 [46] 6.88 µM | GI50 [47] 30.3 µM | GI50 [48] 14.7 µM | GI50 [49] 3.97 µM | GI50 [50] 5.3 µM | GI50 [51] 19.7 µM | GI50 [52] 30.5 µM | GI50 [53] 5.75 µM | GI50 [54] 5.92 µM | GI50 [55] 4.54 µM | GI50 [56] 27.5 µM | GI50 [57] 28.6 µM
63.5 µM: TGI [37]
> 100 µM: TGI [1] | TGI [2] | TGI [3] | TGI [6] | TGI [7] | TGI [9] | TGI [10] | TGI [11] | TGI [12] | TGI [13] | TGI [14] | TGI [15] | TGI [16] | TGI [17] | TGI [18] | TGI [20] | TGI [22] | TGI [23] | TGI [24] | TGI [25] | TGI [26] | TGI [27] | TGI [29] | TGI [30] | TGI [32] | TGI [34] | TGI [36] | TGI [39] | TGI [40] | TGI [42] | TGI [44] | TGI [45] | TGI [47] | TGI [49] | TGI [50] | TGI [52] | TGI [53] | TGI [54] | TGI [55] | TGI [56] | TGI [57]
46.1 µM: TGI [19]
88.6 µM: TGI [31]

CCOC(=O)c1c(NC(=O)c2ccccc2C(F)(F)F)sc2c1CCC(=O)C2
4.12 µM: TGI [51]
23.6 µM: TGI [29]
41.2 µM: TGI [39]
12.6 µM: TGI [25]
11.5 µM: TGI [53]
4.82 µM: TGI [43]
inactive: GI50 [1] 4.44 µM | GI50 [2] 3.96 µM | GI50 [3] 3.51 µM | GI50 [5] 1.88 µM | GI50 [6] 2.33 µM | GI50 [7] 2.93 µM | GI50 [8] 11.5 µM | GI50 [10] 3.1 µM | GI50 [11] 3.71 µM | GI50 [12] 3.09 µM | GI50 [13] 3.06 µM | GI50 [14] 4.63 µM | GI50 [15] 2.45 µM | GI50 [16] 3.16 µM | GI50 [17] 4.66 µM | GI50 [18] 3.09 µM | GI50 [19] 1.95 µM | GI50 [20] 3.48 µM | GI50 [21] 2.39 µM | GI50 [22] 2.3 µM | GI50 [23] 3.12 µM | GI50 [24] 5.36 µM | GI50 [25] 3.29 µM | GI50 [26] 3.4 µM | GI50 [27] 3.79 µM | GI50 [28] 2.58 µM | GI50 [29] 3.41 µM | GI50 [31] 3.18 µM | GI50 [32] 2.52 µM | GI50 [33] 2.4 µM | GI50 [34] 4.51 µM | GI50 [35] 1.39 µM | GI50 [36] 2.64 µM | GI50 [37] 2.94 µM | GI50 [38] 1.82 µM | GI50 [39] 3.85 µM | GI50 [40] 2.79 µM | GI50 [58] 3.94 µM | GI50 [41] 3.49 µM | GI50 [42] 2.72 µM | GI50 [43] 1.92 µM | GI50 [44] 3.54 µM | GI50 [45] 0.792 µM | GI50 [46] 2.78 µM | GI50 [47] 3.33 µM | GI50 [48] 2.75 µM | GI50 [49] 1.87 µM | GI50 [50] 3.18 µM | GI50 [51] 2.12 µM | GI50 [52] 1.98 µM | GI50 [53] 2.83 µM | GI50 [54] 3.24 µM | GI50 [55] 3.35 µM | GI50 [56] 2.69 µM
5.52 µM: TGI [38]
10 µM: TGI [36]
3.64 µM: TGI [5]
9.47 µM: TGI [37]
12 µM: TGI [45]
8 µM: TGI [46]
7.64 µM: TGI [28]
12.1 µM: TGI [20]
49.2 µM: TGI [8]
10.3 µM: TGI [18] | TGI [42]
> 100 µM: TGI [1] | TGI [2] | TGI [3] | TGI [6] | TGI [11] | TGI [13] | TGI [14] | TGI [17] | TGI [23] | TGI [24] | TGI [26] | TGI [27] | TGI [31] | TGI [58] | TGI [44] | TGI [52] | TGI [54] | TGI [55]
7.14 µM: TGI [35]
7.1 µM: TGI [32]
65 µM: TGI [34]
7.68 µM: TGI [15]
8.09 µM: TGI [21]
11.2 µM: TGI [12]
7.57 µM: TGI [22]
8.75 µM: TGI [10]
9.25 µM: TGI [7]
10.5 µM: TGI [16]
8.82 µM: TGI [48]
11.6 µM: TGI [50]
3.72 µM: TGI [49]
37.8 µM: TGI [41]
30.2 µM: TGI [40]
10.4 µM: TGI [47]
5.46 µM: TGI [19]
6.48 µM: TGI [33]
7.21 µM: TGI [56]
